Active and inactive are the calls of the source. The rule behind the calls is not given here.
Key:
[1] = Inhibition of C57BL/6 mouse synaptosomal choline transporter; set-up: species or system C57BL6
Mus musculus = organism: Mus musculus; assay: Inhibition of C57BL/6 mouse nicotinic acetyl choline receptor; conditions: C57BL6

Compound	IC50 [1] [µM]	Ki [1] [µM]	Activity (Mus musculus)
C[N+](C)(CCCCCCCCCC[N+](C)(C)Cc1cccc(O)c1O)Cc1cccc(O)c1O	21	31	Active
C[N+](C)(C)CCCCCCCCCC[N+](C)(C)C [DECAMETHONIUM]	1.5		
C[N+](C)(CCCCCC[N+](C)(C)Cc1cccc(O)c1O)Cc1cccc(O)c1O	76	73	Active
C[N+](C)(C)CCCCCC[N+](C)(C)C [HEXAMETHONIUM CHLORIDE]	130		

Source: ChEMBL document CHEMBL1137489, “Inhibition of choline transport by redox-active cholinomimetic bis-catechol reagents” (Bioorg Med Chem, 2007)
